Among the data in PubChem BioAssay AID328 (DTP/NCI, 2004) are T/C values, retold here.

Where “and” joins values, the source holds several entries; their conditions need not be identical. Equal values may be shown once. Toxic doses and inconclusive results are not listed.

This experiment relates to BDF1 mice, P388 leukemia ip, median survival T/C. As to the kind of experiment: NCI In Vivo Anticancer Drug Screen. Data for tumor model P388 Leukemia (intraperitoneal) in B6D2F1 (BDF1) mice. The conditions noted are these: endpoint: median survival time, higher = longer survival. In a few lines: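 Transplantable tumour in mice; compound vs vehicle dosing; survival scored; ratio of treated to control reported.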

Where [1] appears, read: dose: 100.0 mg/kg/injection, schedule: Q01DX009 (ip), vehicle: saline.
[2] abbreviates: dose: 200.0 mg/kg/injection, schedule: Q01DX009 (ip), vehicle: saline.
The mark [3] stands for this setting: dose: 400.0 mg/kg/injection, schedule: Q01DX009 (ip), vehicle: saline.
Where [4] appears, read: dose: 100.0 mg/kg/injection, schedule: Q04DX003 (ip), vehicle: saline with Tween-80.
Setting [5] is: dose: 200.0 mg/kg/injection, schedule: Q04DX003 (ip), vehicle: saline with Tween-80.
[6] abbreviates: dose: 50.0 mg/kg/injection, schedule: Q01DX009 (ip), vehicle: saline.
Where [7] appears, read: dose: 400.0 mg/kg/injection, schedule: Q04DX003 (ip), vehicle: saline with Tween-80.
The mark [8] stands for this setting: dose: 100.0 mg/kg/injection, schedule: Q01DX009 (ip), vehicle: saline with Tween-80.
Where [9] appears, read: dose: 200.0 mg/kg/injection, schedule: Q01DX009 (ip), vehicle: saline with Tween-80.
The mark [10] stands for this setting: dose: 100.0 mg/kg/injection, schedule: Q01DX009 (ip), vehicle: Klucel (hydroxypropylcellulose) (HPC).
[11] abbreviates: dose: 200.0 mg/kg/injection, schedule: Q01DX009 (ip), vehicle: Klucel (hydroxypropylcellulose) (HPC).

As for `O.O=c1[nH]cc(Cl)c(=O)[nH]1.[NH2-].[NH2-].[Pt+2]`, the T/C runs as follows: (dose: 6.25 mg/kg/injection, schedule: Q01DX009 (ip), vehicle: water) 118 % of control; (dose: 12.5 mg/kg/injection, schedule: Q01DX009 (ip), vehicle: water) 155 % of control; (dose: 12.5 mg/kg/injection, schedule: Q04DX003 (ip), vehicle: water) 123 % of control; (dose: 25.0 mg/kg/injection, schedule: Q01DX009 (ip), vehicle: water) 229 % of control and 171 % of control; (dose: 25.0 mg/kg/injection, schedule: Q04DX003 (ip), vehicle: water) 166 % of control; (dose: 50.0 mg/kg/injection, schedule: Q01DX009 (ip), vehicle: water) 192 % of control. For the setting “dose: 50.0 mg/kg/injection, schedule: Q04DX003 (ip), vehicle: water”, the T/C was 200 % of control.
`O=C1C(c2ccccc2)=S=C2C=CC=CN12`: the T/C reads like this: (dose: 12.5 mg/kg/injection, schedule: Q01DX001 (ip), vehicle: saline with Tween-80) 109 % of control; (dose: 25.0 mg/kg/injection, schedule: Q01DX001 (ip), vehicle: saline with Tween-80) 100 % of control; (dose: 50.0 mg/kg/injection, schedule: Q01DX001 (ip), vehicle: saline with Tween-80) 87 % of control; (dose: 100.0 mg/kg/injection, schedule: Q01DX001 (ip), vehicle: saline with Tween-80) 100 % of control.
Consider `OCCN1CCOCC1`, for which the T/C reads like this: under setting [1], 109 % of control; under setting [2], 109 % of control; under setting [3], 109 % of control.
For `CCCCSc1ncnc2nc[nH]c12`, the T/C is, setting by setting: under setting [4], 104 % of control; under setting [5], 100 % of control.
Turning to `CCSC(C(O)C(O)C(O)C(O)CO)n1ccc(=O)[nH]c1=O` (centres undefined), the T/C is, setting by setting: (dose: 12.5 mg/kg/injection, schedule: Q01DX001 (ip), vehicle: saline) 100 % of control; (dose: 25.0 mg/kg/injection, schedule: Q01DX001 (ip), vehicle: saline) 100 % of control; (dose: 50.0 mg/kg/injection, schedule: Q01DX001 (ip), vehicle: saline) 100 % of control.
For the compound `CC1(C)Cc2cc3cc(Cl)ccc3nc2-c2ccccc21`, the T/C under setting [1] is 110 % of control; the T/C (dose: 100.0 mg/kg/injection, schedule: Q04DX003 (ip), vehicle: Klucel (hydroxypropylcellulose) (HPC)) is 110 % of control; the T/C under setting [2] was 105 % of control; the T/C (dose: 200.0 mg/kg/injection, schedule: Q04DX003 (ip), vehicle: Klucel (hydroxypropylcellulose) (HPC)) is 115 % of control; the T/C under setting [3] is 110 % of control; the T/C (dose: 400.0 mg/kg/injection, schedule: Q04DX003 (ip), vehicle: Klucel (hydroxypropylcellulose) (HPC)) is 110 % of control.
Turning to `CC(O)C(C)(O)C(=O)O` (centres undefined), the T/C reads like this: under setting [6], 103 % of control; under setting [1], 117 % of control; (dose: 100.0 mg/kg/injection, schedule: Q04DX003 (ip), vehicle: saline) 101 % of control; under setting [2], 91 % of control; (dose: 200.0 mg/kg/injection, schedule: Q04DX003 (ip), vehicle: saline) 95 % of control; (dose: 300.0 mg/kg/injection, schedule: Q01DX009 (ip), vehicle: saline) 99 % of control.
On to `O=CN1CCN(c2ccc([N+](=O)[O-])c3nonc23)CC1`, for which the T/C (dose: 15.0 mg/kg/injection, schedule: Q01DX009 (ip), vehicle: saline with Tween-80) is 103 % of control; the T/C (dose: 20.0 mg/kg/injection, schedule: Q04DX003 (ip), vehicle: saline with Tween-80) was 100 % of control; the T/C (dose: 30.0 mg/kg/injection, schedule: Q01DX009 (ip), vehicle: saline with Tween-80) was 100 % of control; the T/C (dose: 40.0 mg/kg/injection, schedule: Q04DX003 (ip), vehicle: saline with Tween-80) is 99 % of control; the T/C (dose: 80.0 mg/kg/injection, schedule: Q04DX003 (ip), vehicle: saline with Tween-80) is 95 % of control.
For the compound `CC(=O)/C(C1=NCCC1)=C(/C)O`, the T/C reads like this: (dose: 25.0 mg/kg/injection, schedule: Q01DX009 (ip), vehicle: saline) 109 % of control; under setting [6], 100 % of control; under setting [1], 100 % of control.
In the case of `Cc1c(C)c(Br)c(C)c(-c2c(O)c(Br)c(-c3c(C)c(C)c(C)c(Br)c3C)c(O)c2Br)c1C`, the T/C was 100 % of control under setting [4], 90 % of control under setting [5] and 90 % of control under setting [7].
As for `Cc1c(O)ccc(=O)n1O`, the T/C (dose: 20.0 mg/kg/injection, schedule: Q01DX009 (ip), vehicle: Klucel (hydroxypropylcellulose) (HPC)) was 108 % of control; the T/C (dose: 20.0 mg/kg/injection, schedule: Q01DX009 (ip), vehicle: saline) is 95 % of control; the T/C (dose: 40.0 mg/kg/injection, schedule: Q01DX009 (ip), vehicle: Klucel (hydroxypropylcellulose) (HPC)) is 121 % of control; the T/C (dose: 40.0 mg/kg/injection, schedule: Q01DX009 (ip), vehicle: saline with Tween-80) is 117 % of control; the T/C (dose: 40.0 mg/kg/injection, schedule: Q01DX009 (ip), vehicle: saline) is 95 % of control; the T/C (dose: 80.0 mg/kg/injection, schedule: Q01DX009 (ip), vehicle: Klucel (hydroxypropylcellulose) (HPC)) is 110 % of control. Moreover, the T/C is 116 % of control under setting [8]; 104 % of control under setting [4]; 122 % of control (dose: 160.0 mg/kg/injection, schedule: Q01DX009 (ip), vehicle: saline with Tween-80); 100 % of control (dose: 160.0 mg/kg/injection, schedule: Q01DX009 (ip), vehicle: saline); 108 % of control under setting [9]; 100 % of control under setting [5]. Further, the T/C under setting [7] was 90 % of control.
Turning to `COc1cc2cc3c4cc(OC)c(OC)cc4cc[n+]3c(CCC(=O)O)c2cc1OC` (tested in a mixture with another compound), the T/C reads like this: under setting [10], 92 % of control; under setting [11], 119 % of control.
As for `c1ccc(-c2cc(-c3ccccc3)[s+]s2)cc1`, the T/C is 111 % of control (dose: 6.25 mg/kg/injection, schedule: Q01DX009 (ip), vehicle: saline with Tween-80); 117 % of control and 124 % of control (dose: 12.5 mg/kg/injection, schedule: Q01DX009 (ip), vehicle: saline with Tween-80); 91 % of control and 110 % of control and 115 % of control (dose: 25.0 mg/kg/injection, schedule: Q01DX009 (ip), vehicle: saline with Tween-80); 98 % of control (dose: 25.0 mg/kg/injection, schedule: Q04DX003 (ip), vehicle: saline with Tween-80); 92 % of control and 113 % of control (dose: 50.0 mg/kg/injection, schedule: Q01DX009 (ip), vehicle: saline with Tween-80); 109 % of control and 115 % of control (dose: 50.0 mg/kg/injection, schedule: Q04DX003 (ip), vehicle: saline with Tween-80). The T/C under setting [8] is 98 % of control and 113 % of control; the T/C under setting [4] is 117 % of control and 118 % of control; the T/C under setting [9] is 99 % of control and 120 % of control; the T/C under setting [5] was 108 % of control; the T/C (dose: 300.0 mg/kg/injection, schedule: Q01DX009 (ip), vehicle: saline with Tween-80) is 94 % of control.
As for `COc1ccc(/C(C#N)=C2C=C(Cl)/C(=N/O)C=C/2Cl)cc1`, the T/C is, setting by setting: (dose: 100.0 mg/kg/injection, schedule: Q01DX001 (ip), vehicle: Klucel (hydroxypropylcellulose) (HPC)) 90 % of control; under setting [10], 95 % of control; (dose: 200.0 mg/kg/injection, schedule: Q01DX001 (ip), vehicle: Klucel (hydroxypropylcellulose) (HPC)) 90 % of control; under setting [11], 87 % of control; (dose: 400.0 mg/kg/injection, schedule: Q01DX001 (ip), vehicle: Klucel (hydroxypropylcellulose) (HPC)) 86 % of control; (dose: 400.0 mg/kg/injection, schedule: Q01DX009 (ip), vehicle: Klucel (hydroxypropylcellulose) (HPC)) 104 % of control.
